Results taken from US11078194B2, “Salt form and crystal form serving as FGFR and VEGFR inhibitor compounds, and preparation method therefor” (HARBIN ZHENBAO PHARMACEUTICAL CO., LTD., priority 2017, dated 2021).

Legend:
[1] = Hygroscopicity test by dynamic vapor sorption (DVS); format: physicochemical; details: 25±1° C. and 80±2% RH; for hygroscopicity evaluation: scales in the 11th table
Description: Instrument model: SMS DVS Advantage dynamic vapor sorption analyzer Detection conditions: samples (10 mg to 15 mg) were placed in a DVS sample tray for detection. The detailed DVS parameters are as follows: Temperature: 25° C. Balance: dm/dt=0.01%/min (shortest: 10 min, longest: 180 min) Drying: 120 minutes at 0% RH RH (%) gradient for testing: 10% RH (%) range for gradient testing: 0%-90%-0% The hygroscopicity was evaluated using the following scales: [table] 10 to 15 mg of the crystal form I of the compound of formula (III) was taken and placed in a DVS sample tray for testing. 10 to 15 mg of the crystal form J of the compound of formula (IV) was taken and placed in a DVS sample tray for testing.

[2] = Solid stability test of crystal form G, crystal form I and crystal form J (HPLC content, total impurities, XRPD, appearance); format: physicochemical; details: for thermal stability and stability under accelerated conditions: conclusion of influencing factors and accelerated tests
Description: About 10 mg of crystal form G, crystal form I, or crystal form J were weighed accurately, and placed on the bottom of a 40 mL glass sample bottle and spread into a thin layer. For an open sample, the bottle mouth thereof was sealed with aluminum foil poked with pinholes to ensure that the sample can fully contact with the ambient air. For a sealed sample, the bottle mouth thereof was sealed with a bottle cap, and wrapped with a sealing film. Two duplicate samples were weighed at each time point of each condition in parallel, and an appropriate amount of sample (not weighed) was taken additionally for XRPD detection. The prepared samples were placed under each condition and were sampled and analyzed when the time point was arrived. On 0th day, 5 control samples were weighed in parallel and stored in a refrigerator at −20° C. until analysis. The samples subjected to light irradiation were prepared by the same method, and placed on the bottom of a 40 mL glass sample bottle. The glass bottle was left open and placed in the upright position in a light irradiation box. In addition, two samples in an appropriate amount were taken as samples in dark, and the glass bottles containing the same were left open, put in the upright position, and wrapped with tin foil, and irradiated with a total luminance of 1.2×10^6Lux.hr and a near ultraviolet power of 200 w.hr/m^2. After irradiation, the samples was stored in the refrigerator at −20° C. for analysis.
The compounds were placed under the following conditions and sampled at different time points to detect the physical properties, and the content and total impurities were analyzed by HPLC.

[3] = Accelerated test (40 C./relative humidity 75%, open), 1st month
[4] = Accelerated test (40 C./relative humidity 75%, open), 2nd month
[5] = Accelerated test (40 C./relative humidity 75%, open), 3rd month
[6] = Accelerated test (40 C./relative humidity 75%, open), 10th day
[7] = Accelerated test (60 C./relative humidity 75%, open), 1st month
[8] = Accelerated test (60 C./relative humidity 75%, open), 2nd month
[9] = Accelerated test (60 C./relative humidity 75%, open), 3rd month
[10] = Accelerated test (60 C./relative humidity 75%, open), 10th day
[11] = High humidity (Room temperature/relative humidity 92.5%, open), 5th day
[12] = High humidity (Room temperature/relative humidity 92.5%, open), 10th day
[13] = High temperature (60° C., open), 5th day
[14] = High temperature (60° C., open), 10th day
[15] = Light irradiation (total illuminance 1.2 × 10^6 Lux·hr/near ultraviolet 200 w·hr/m^2, open), light irradiation sample
[16] = Light irradiation test, Dark sample
[17] = Accelerated test (40° C./relative humidity 75%, open), 1st month
[18] = Accelerated test (40° C./relative humidity 75%, open), 2nd month
[19] = Accelerated test (40° C./relative humidity 75%, open), 3rd month
[20] = Accelerated test (40° C./relative humidity 75%, open), 10th day
[21] = Accelerated test (60° C./relative humidity 75%, open), 1st month
[22] = Accelerated test (60° C./relative humidity 75%, open), 2nd month
[23] = Accelerated test (60° C./relative humidity 75%, open), 3rd month
[24] = Accelerated test (60° C./relative humidity 75%, open), 10th day
[25] = Light irradiation (1.2 × 10^6 Lux·hr, near ultraviolet 200 w·hr/m^2, open), irradiated sample

Which results are given for `C[C@@H](Oc1ccc2[nH]nc(/C=C(\F)c3ccc(CNC4CCOCC4)nc3)c2c1)c1c(Cl)cncc1Cl.O=C(O)C[C@H](O)C(=O)O` [crystal form J]?
hygroscopic weight gain ΔW [1]: 5.227%; hygroscopicity evaluation [1]: hygroscopic; Appearance ([2]; 0th day, control): Earth yellow; Crystal form (XRPD) ([2]; 0th day, control): form J; Content (%) ([2]; 0th day, control, HPLC): 100.00%; Total impurities (%) ([2]; 0th day, control, HPLC): 1.42%; Appearance [2, 3]: Earth yellow; Content (%) [2, 3]: 99.31%; Crystal form (XRPD) [2, 3]: form J; Total impurities (%) [2, 3]: 1.36%; Appearance [2, 4]: Earth yellow; Content (%) [2, 4]: 99.40%; Crystal form (XRPD) [2, 4]: form J; Total impurities (%) [2, 4]: 1.20%; Appearance [2, 5]: Earth yellow; Content (%) [2, 5]: 98.62%; Crystal form (XRPD) [2, 5]: form J; Total impurities (%) [2, 5]: 1.20%; Appearance [2, 6]: Earth yellow; Content (%) [2, 6]: 99.44%; Crystal form (XRPD) [2, 6]: form J; Total impurities (%) [2, 6]: 1.33%; Appearance [2, 7]: Earth yellow; Content (%) [2, 7]: 97.07%; Crystal form (XRPD) [2, 7]: form J; Total impurities (%) [2, 7]: 1.43%; Appearance [2, 8]: Earth yellow; Content (%) [2, 8]: 97.22%; Crystal form (XRPD) [2, 8]: form J; Total impurities (%) [2, 8]: 1.48%; Appearance [2, 9]: Earth yellow; Content (%) [2, 9]: 97.18%; Crystal form (XRPD) [2, 9]: form J; Total impurities (%) [2, 9]: 1.53%; Appearance [2, 10]: Earth yellow; Content (%) [2, 10]: 99.05%; Crystal form (XRPD) [2, 10]: form J; Total impurities (%) [2, 10]: 1.36%; Appearance [2, 11]: Earth yellow; Content (%) [2, 11]: 99.06%; Crystal form (XRPD) [2, 11]: form J; Total impurities (%) [2, 11]: 1.31%; Appearance [2, 12]: Earth yellow; Content (%) [2, 12]: 100.58%; Crystal form (XRPD) [2, 12]: form J; Total impurities (%) [2, 12]: 1.32%; Appearance [2, 13]: Earth yellow; Content (%) [2, 13]: 98.83%; Crystal form (XRPD) [2, 13]: form J; Total impurities (%) [2, 13]: 1.39%; Appearance [2, 14]: Earth yellow; Content (%) [2, 14]: 99.11%; Crystal form (XRPD) [2, 14]: form J; Total impurities (%) [2, 14]: 1.46%; Appearance [2, 15]: Earth yellow; Content (%) [2, 15]: 96.41%; Crystal form (XRPD) [2, 15]: form J; Total impurities (%) [2, 15]: 1.90%; Appearance [2, 16]: Earth yellow; Content (%) [2, 16]: 98.04%; Crystal form (XRPD) [2, 16]: form J; Total impurities (%) [2, 16]: 1.30%; thermal stability and stability under accelerated conditions [2]: excellent; stability under dark conditions [2]: good stability; impurities generated under light irradiation conditions [2]: slight impurities

With `C[C@@H](Oc1ccc2[nH]nc(/C=C(\F)c3ccc(CNC4CCOCC4)nc3)c2c1)c1c(Cl)cncc1Cl.O=C(O)CC(O)(CC(=O)O)C(=O)O` [crystal form I] as the compound, how does the “hygroscopic weight gain ΔW” value [1] read?
Its value is 2.134%.

What about the hygroscopicity evaluation [1] of the same compound?
The hygroscopicity evaluation was “hygroscopic”.

And the Appearance ([2]; 0th day)?
Its Appearance is “Earth yellow”.

What about the “Content (%)” value ([2]; 0th day) of the same compound?
Its value is 100.00%.

What about the “Crystal form (XRPD)” value ([2]; 0th day) of the same compound?
Its value is “form I”.

And the “Total impurities (%)” value ([2]; 0th day)?
Its value is 1.91%.

What about the Appearance [2, 17] of the same compound?
The Appearance was “Earth yellow”.

And the “Content (%)” value [2, 17]?
Its value is 99.83%.

And the “Crystal form (XRPD)” value [2, 17]?
Its value is “form I”.

What about the “Total impurities (%)” value [2, 17] of the same compound?
Its value is 1.88%.

What about the Appearance [2, 18] of the same compound?
The Appearance was “Earth yellow”.

And the “Content (%)” value [2, 18]?
Its value is 100.06%.

And the “Crystal form (XRPD)” value [2, 18]?
Its value is “form I”.

What about the “Total impurities (%)” value [2, 18] of the same compound?
The value was 1.82%.

What about the Appearance [2, 19] of the same compound?
Its Appearance is “Earth yellow”.

And the “Content (%)” value [2, 19]?
Its value is 99.32%.

And the “Crystal form (XRPD)” value [2, 19]?
The value was “form I”.

What about the “Total impurities (%)” value [2, 19] of the same compound?
Its value is 1.86%.

What about the Appearance [2, 20] of the same compound?
Its Appearance is “Earth yellow”.

And the “Content (%)” value [2, 20]?
Its value is 99.93%.

What about the “Crystal form (XRPD)” value [2, 20] of the same compound?
Its value is “form I”.

And the “Total impurities (%)” value [2, 20]?
The value was 1.85%.

What about the Appearance [2, 21] of the same compound?
Its Appearance is “Earth yellow”.

And the “Content (%)” value [2, 21]?
The value was 99.95%.

And the “Crystal form (XRPD)” value [2, 21]?
Its value is “form I”.

And the “Total impurities (%)” value [2, 21]?
The value was 1.74%.

And the Appearance [2, 22]?
Its Appearance is “Earth yellow”.

And the “Content (%)” value [2, 22]?
The value was 98.46%.

What about the “Crystal form (XRPD)” value [2, 22] of the same compound?
The value was “form I”.

What about the “Total impurities (%)” value [2, 22] of the same compound?
Its value is 1.79%.

And the Appearance [2, 23]?
The Appearance was “Earth yellow”.

What about the “Content (%)” value [2, 23] of the same compound?
Its value is 97.31%.

And the “Crystal form (XRPD)” value [2, 23]?
The value was “form I”.

What about the “Total impurities (%)” value [2, 23] of the same compound?
The value was 1.83%.

What about the Appearance [2, 24] of the same compound?
The Appearance was “Earth yellow”.

And the “Content (%)” value [2, 24]?
The value was 100.19%.

And the “Crystal form (XRPD)” value [2, 24]?
The value was “form I”.

And the “Total impurities (%)” value [2, 24]?
Its value is 1.85%.

What about the Appearance [2, 11] of the same compound?
Its Appearance is “Earth yellow”.

And the “Content (%)” value [2, 11]?
Its value is 99.10%.

And the “Crystal form (XRPD)” value [2, 11]?
Its value is “form I”.

And the “Total impurities (%)” value [2, 11]?
The value was 1.88%.

What about the Appearance [2, 12] of the same compound?
Its Appearance is “Earth yellow”.

What about the “Content (%)” value [2, 12] of the same compound?
Its value is 99.92%.

And the “Crystal form (XRPD)” value [2, 12]?
The value was “form I”.

And the “Total impurities (%)” value [2, 12]?
Its value is 1.73%.

And the Appearance [2, 13]?
Its Appearance is “Earth yellow”.

What about the “Content (%)” value [2, 13] of the same compound?
Its value is 100.40%.

And the “Crystal form (XRPD)” value [2, 13]?
The value was “form I”.

What about the “Total impurities (%)” value [2, 13] of the same compound?
The value was 1.93%.

And the Appearance [2, 14]?
Its Appearance is “Earth yellow”.

What about the “Content (%)” value [2, 14] of the same compound?
Its value is 100.26%.

What about the “Crystal form (XRPD)” value [2, 14] of the same compound?
The value was “form I”.

And the “Total impurities (%)” value [2, 14]?
Its value is 1.83%.

What about the Appearance [2, 25] of the same compound?
The Appearance was “Earth yellow”.

What about the “Content (%)” value [2, 25] of the same compound?
The value was 97.37%.

And the “Crystal form (XRPD)” value [2, 25]?
The value was “form I”.

What about the “Total impurities (%)” value [2, 25] of the same compound?
Its value is 2.35%.

What about the Appearance [2, 16] of the same compound?
Its Appearance is “Earth yellow”.

What about the “Content (%)” value [2, 16] of the same compound?
The value was 99.42%.

And the “Crystal form (XRPD)” value [2, 16]?
Its value is “form I”.

And the “Total impurities (%)” value [2, 16]?
Its value is 1.85%.

What about the “thermal stability and stability under accelerated conditions” value [2] of the same compound?
Its value is “excellent”.

What about the “stability under dark conditions” value [2] of the same compound?
Its value is “good stability”.

And the “impurities generated under light irradiation conditions” value [2]?
The value was “slight impurities”.
